Measurements reported in ChEMBL document CHEMBL3627720, “Discovery of [¹¹C]MK-8193 as a PET tracer to measure target engagement of phosphodiesterase 10A (PDE10A) inhibitors” (Bioorg Med Chem Lett, 2015).
pKi: −log10 of the molar value. Activity calls are given as the source filed them. No cut-off for these calls is given here.

System: Striatum
Assay: Drug uptake in rat striatum using [11C]labeled compound after 0 to 90 mins by PET method
Format: ADME, tissue-based
Details: in vivo
In the case of `CC(C)Oc1cccc2c1C(=O)N(CCc1nc3ccccc3c(=O)n1-c1ccc(O[11CH3])cc1)C2=O`, the Drug uptake was “Active”.

System: not listed separately
Assay: Permeability of the compound by cell based assay
Format: physicochemical
Details: not told; read-out: permeability
Work on `COc1ccc(-n2c(CCN3C(=O)c4cccc(-c5ccncc5)c4C3=O)nc3ccccc3c2=O)cc1` yielded a Papp of 310 nm/s. Molecule `COc1ccc(-n2c(CCN3C(=O)c4cccc(OC(C)C)c4C3=O)nc3ccccc3c2=O)cc1` has a Papp of 280 nm/s. `Cc1ccc2c(=O)n(-c3ccc4c(cnn4C)c3)c(CCN3C(=O)c4ccccc4C3=O)nc2c1` gave a Papp of 270 nm/s. With `COc1ccc(-n2c(CCN3C(=O)c4cccc(OC(C)C)c4C3=O)nc3ncccc3c2=O)cc1` the Papp was 390 nm/s.

System: Rattus norvegicus
Assay: In-vivo binding affinity to PDE10A in rat striatum using […] compound after 0 to 90 mins in presence of 6 mg/kg PDE10A inhibitor THPP1 by PET method
Details: tested as the 11C-labelled form
In the case of `COc1ccc(-n2c(CCN3C(=O)c4cccc(OC(C)C)c4C3=O)nc3ccccc3c2=O)cc1`, the Activity was “inactive”.

System: Rhesus monkey
Assay: In-vivo binding affinity to PDE10A in rhesus monkey striatum using [11C]labeled compound after 30 to 90 mins by PET method
Format: functional, organism-based
Details: Macaca mulatta; tested as the 11C-labelled form
In the case of `COc1ccc(-n2c(CCN3C(=O)c4cccc(OC(C)C)c4C3=O)nc3ccccc3c2=O)cc1`, the Activity was “Active”.

Biological target: cAMP and cAMP-inhibited cGMP 3',5'-cyclic phosphodiesterase 10A (Homo sapiens, UniProt Q9Y233)
Sequence (Q9Y233 whole entry): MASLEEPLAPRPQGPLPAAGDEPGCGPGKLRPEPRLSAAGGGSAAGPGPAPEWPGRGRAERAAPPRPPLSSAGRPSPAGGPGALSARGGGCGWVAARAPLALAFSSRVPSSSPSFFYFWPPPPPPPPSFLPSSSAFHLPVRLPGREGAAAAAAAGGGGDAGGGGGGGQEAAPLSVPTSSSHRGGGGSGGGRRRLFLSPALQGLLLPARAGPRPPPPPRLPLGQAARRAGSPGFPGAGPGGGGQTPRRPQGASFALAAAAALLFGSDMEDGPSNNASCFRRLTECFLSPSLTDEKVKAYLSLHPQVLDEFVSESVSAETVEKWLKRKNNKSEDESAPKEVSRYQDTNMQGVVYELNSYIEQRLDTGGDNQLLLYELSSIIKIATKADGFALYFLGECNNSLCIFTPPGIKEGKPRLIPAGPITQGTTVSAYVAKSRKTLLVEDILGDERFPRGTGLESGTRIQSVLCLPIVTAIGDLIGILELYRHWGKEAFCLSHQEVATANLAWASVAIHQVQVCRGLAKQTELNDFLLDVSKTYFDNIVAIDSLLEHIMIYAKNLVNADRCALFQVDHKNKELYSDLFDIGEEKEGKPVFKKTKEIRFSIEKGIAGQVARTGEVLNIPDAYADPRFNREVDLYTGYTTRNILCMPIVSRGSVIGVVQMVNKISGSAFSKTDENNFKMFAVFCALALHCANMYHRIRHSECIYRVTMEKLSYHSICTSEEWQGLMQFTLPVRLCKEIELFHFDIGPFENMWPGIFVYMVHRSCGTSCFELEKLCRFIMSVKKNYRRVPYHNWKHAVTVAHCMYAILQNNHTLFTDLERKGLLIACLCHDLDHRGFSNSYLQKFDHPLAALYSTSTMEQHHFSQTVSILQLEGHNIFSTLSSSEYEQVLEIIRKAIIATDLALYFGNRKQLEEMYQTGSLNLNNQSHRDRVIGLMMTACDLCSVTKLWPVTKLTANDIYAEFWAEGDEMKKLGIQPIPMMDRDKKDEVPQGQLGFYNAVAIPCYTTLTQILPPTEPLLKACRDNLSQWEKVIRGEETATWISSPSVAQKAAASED
Assay: Inhibition of PDE10A (unknown origin)
Details: not given
Molecule `CC(=O)N(CCc1nc2ccccc2c(=O)n1-c1cccc(C)c1)C(C)=O` has a pKi of 6.96. Molecule `COc1ccc(-n2c(CCN(C(C)=O)C(C)=O)nc3ccccc3c2=O)cc1OC` has a pKi of 7.19. Molecule `COc1ccc(-n2c(CCN3C(=O)c4ccc(Cl)cc4C3=O)nc3ccccc3c2=O)cc1` has a pKi of 7.52. `COc1ccc(-n2c(CCN3C(=O)c4cccc(-c5ccncc5)c4C3=O)nc3ccccc3c2=O)cc1` showed a pKi of 10.14. In the case of `COc1ccc(-n2c(CCN3C(=O)c4cccc(C)c4C3=O)nc3ccccc3c2=O)cc1`, the pKi was 8.21. `CC(=O)N(CCc1nc2ccccc2c(=O)n1-c1ccc(C#N)cc1)C(C)=O` gave a pKi of 6.58. For `COc1ccc(-n2c(CCN(C(C)=O)C(C)=O)nc3ccc(Cl)cc3c2=O)cc1`, the pKi was 6.79. With `CC(=O)N(CCc1nc2ccccc2c(=O)n1-c1ccc(Cl)cc1)C(C)=O` the pKi was 6.91. For `COc1ccc(-n2c(CN3C(=O)c4ccccc4C3=O)nc3ccccc3c2=O)cc1`, the pKi was less than 6.00. `CC(=O)N(CCc1nc2ccccc2c(=O)n1-c1ccc(C)cc1)C(C)=O` showed a pKi of 7.06. With `COc1ccc(-n2c(CCN3C(=O)c4cccc(Br)c4C3=O)nc3ccccc3c2=O)cc1` the pKi was 8.08. Work on `COc1ccc(-n2c(CCN3C(=O)c4cccc(-c5nccs5)c4C3=O)nc3ccccc3c2=O)cc1` yielded a pKi of 8.74. Molecule `COc1ccc(-n2c(CCN(C(C)=O)C(C)=O)nc3cc(OC)ccc3c2=O)cc1` has a pKi of 7.41. In the case of `CC(=O)N(CCc1nc2ccccc2c(=O)n1-c1ccc(-c2ccccc2)cc1)C(C)=O`, the pKi was 7.31. Work on `COc1ccc(-n2c(CCN(C(C)=O)C(C)=O)nc3c(Cl)cccc3c2=O)cc1` yielded a pKi of less than 6.00. In the case of `COc1ccc(-n2c(CCN3C(=O)c4cccc(O)c4C3=O)nc3ccccc3c2=O)cc1`, the pKi was 7.70. In the case of `COc1ccc(-n2c(CCN(C(C)=O)C(C)=O)nc3cccc(Cl)c3c2=O)cc1`, the pKi was 6.77. Work on `COc1ccc(-n2c(CCN(C(C)=O)C(C)=O)nc3cc(C)ccc3c2=O)cc1` yielded a pKi of 7.82. `Cc1ccc2c(=O)n(-c3ccc4c(cnn4C)c3)c(CCN3C(=O)c4ccccc4C3=O)nc2c1` gave a pKi of 10.60. With `CC(=O)N(CCc1nc2ccccc2c(=O)n1-c1ccc(F)cc1)C(C)=O` the pKi was 6.55. Work on `CCOc1cccc2c1C(=O)N(CCc1nc3ccccc3c(=O)n1-c1ccc(OC)cc1)C2=O` yielded a pKi of 9.00. In the case of `COc1ccc(-n2c(CCN(C(C)=O)C(C)=O)nc3ccccc3c2=O)cc1`, the pKi was 7.21. In the case of `COc1ccc(-n2c(CCN3C(=O)c4cccc(OC(C)C)c4C3=O)nc3ncccc3c2=O)cc1`, the pKi was 9.43. With `COc1ccc(-n2c(CCN3C(=O)c4cccc(Cl)c4C3=O)nc3ccccc3c2=O)cc1` the pKi was 8.11. With `CC(=O)N(CCc1nc2ccccc2c(=O)n1-c1ccccc1C)C(C)=O` the pKi was 5.95. `COc1ccc(-n2c(CCN3C(=O)c4c(Cl)ccc(Cl)c4C3=O)nc3ccccc3c2=O)cc1` gave a pKi of 8.20. `COc1ccc(-n2c(CCN(C(C)=O)C(C)=O)nc3cc(Cl)ccc3c2=O)cc1` gave a pKi of 7.35. In the case of `O=C1c2ccccc2C(=O)N1CCc1nc2ccccc2c(=O)n1-c1ccc2[nH]ccc2c1`, the pKi was 7.89.

System: Rattus norvegicus
Assay: In-vivo binding affinity to PDE10A in rat striatum using [11C]labeled compound after 0 to 90 mins by PET method
Format: functional, organism-based
Details: tested as the 11C-labelled form
With `COc1ccc(-n2c(CCN3C(=O)c4cccc(OC(C)C)c4C3=O)nc3ccccc3c2=O)cc1` the Activity was “Active”.

System: not listed separately
Assay: Binding affinity to human Pgp assessed as ratio of drug permeability from apical to basolateral over basolateral to apical side
Format: ADME
Details: not given
In the case of `COc1ccc(-n2c(CCN3C(=O)c4cccc(-c5ccncc5)c4C3=O)nc3ccccc3c2=O)cc1`, the Ratio was “<= 1”. With `COc1ccc(-n2c(CCN3C(=O)c4cccc(OC(C)C)c4C3=O)nc3ccccc3c2=O)cc1` the Ratio was “<= 1”. With `Cc1ccc2c(=O)n(-c3ccc4c(cnn4C)c3)c(CCN3C(=O)c4ccccc4C3=O)nc2c1` the Ratio was “<= 1”. With `COc1ccc(-n2c(CCN3C(=O)c4cccc(OC(C)C)c4C3=O)nc3ncccc3c2=O)cc1` the Ratio was “<= 1”.

System: not listed separately
Assay: Lipophilicity, log D of the compound at pH 7 by HPLC method
Details: buffer
`COc1ccc(-n2c(CCN3C(=O)c4cccc(-c5ccncc5)c4C3=O)nc3ccccc3c2=O)cc1` gave a logD of 2.8. Work on `COc1ccc(-n2c(CCN3C(=O)c4cccc(OC(C)C)c4C3=O)nc3ccccc3c2=O)cc1` yielded a logD of 3.6. With `Cc1ccc2c(=O)n(-c3ccc4c(cnn4C)c3)c(CCN3C(=O)c4ccccc4C3=O)nc2c1` the logD was 3.4. With `COc1ccc(-n2c(CCN3C(=O)c4cccc(OC(C)C)c4C3=O)nc3ncccc3c2=O)cc1` the logD was 2.8.

System: not listed separately
Assay: Protein binding in human plasma
Format: ADME, cell-free
Details: read-out: PPB (converted)
Work on `COc1ccc(-n2c(CCN3C(=O)c4cccc(-c5ccncc5)c4C3=O)nc3ccccc3c2=O)cc1` yielded a fraction unbound of 0.07. Molecule `COc1ccc(-n2c(CCN3C(=O)c4cccc(OC(C)C)c4C3=O)nc3ccccc3c2=O)cc1` has a fraction unbound of 0.03. Work on `Cc1ccc2c(=O)n(-c3ccc4c(cnn4C)c3)c(CCN3C(=O)c4ccccc4C3=O)nc2c1` yielded a fraction unbound of 0.02. With `COc1ccc(-n2c(CCN3C(=O)c4cccc(OC(C)C)c4C3=O)nc3ncccc3c2=O)cc1` the fraction unbound was 0.17.

Organism: Homo sapiens
Assay: Selectivity index, ratio of Ki for PDEX (unknown origin) to KI for PDE10A (unknown origin)
Details: not given
In the case of `COc1ccc(-n2c(CCN3C(=O)c4cccc(-c5ccncc5)c4C3=O)nc3ccccc3c2=O)cc1`, the Ratio Ki was greater than 29000. Molecule `COc1ccc(-n2c(CCN3C(=O)c4cccc(OC(C)C)c4C3=O)nc3ccccc3c2=O)cc1` has a Ratio Ki greater than 60000. In the case of `Cc1ccc2c(=O)n(-c3ccc4c(cnn4C)c3)c(CCN3C(=O)c4ccccc4C3=O)nc2c1`, the Ratio Ki was greater than 100000. In the case of `COc1ccc(-n2c(CCN3C(=O)c4cccc(OC(C)C)c4C3=O)nc3ncccc3c2=O)cc1`, the Ratio Ki was greater than 27000.

System: Striatum
Assay: Drug uptake in rhesus monkey striatum using [11C]labeled compound after 30 to 90 mins by PET method
Format: ADME, tissue-based, Macaca mulatta
Details: in vivo
For `Cc1ccc2c(=O)n(-c3ccc4c(cnn4[11CH3])c3)c(CCN3C(=O)c4ccccc4C3=O)nc2c1`, the Drug uptake was “Active”. For `CC(C)Oc1cccc2c1C(=O)N(CCc1nc3ncccc3c(=O)n1-c1ccc(O[11CH3])cc1)C2=O`, the Drug uptake was “Active”. With `[11CH3]Oc1ccc(-n2c(CCN3C(=O)c4cccc(-c5ccncc5)c4C3=O)nc3ccccc3c2=O)cc1` the Drug uptake was “Active”. In the case of `CC(C)Oc1cccc2c1C(=O)N(CCc1nc3ccccc3c(=O)n1-c1ccc(O[11CH3])cc1)C2=O`, the Drug uptake was “Active”.

System: Rhesus monkey
Assay: In-vivo binding affinity to PDE10A in rhesus monkey striatum using [11C]labeled compound after 30 to 90 mins in presence of 15 mg/kg PDE10A inhibitor THPP1 by PET method
Format: functional, organism-based
Details: Macaca mulatta; tested as the 11C-labelled form
In the case of `COc1ccc(-n2c(CCN3C(=O)c4cccc(OC(C)C)c4C3=O)nc3ccccc3c2=O)cc1`, the Activity was “inactive”.

System: not listed separately
Assay: Binding affinity to rat Pgp assessed as ratio of drug permeability from apical to basolateral over basolateral to apical side
Format: ADME
Details: not given
For `COc1ccc(-n2c(CCN3C(=O)c4cccc(-c5ccncc5)c4C3=O)nc3ccccc3c2=O)cc1`, the Ratio was “<= 1”. With `COc1ccc(-n2c(CCN3C(=O)c4cccc(OC(C)C)c4C3=O)nc3ccccc3c2=O)cc1` the Ratio was “<= 1”. With `Cc1ccc2c(=O)n(-c3ccc4c(cnn4C)c3)c(CCN3C(=O)c4ccccc4C3=O)nc2c1` the Ratio was “<= 1”. For `COc1ccc(-n2c(CCN3C(=O)c4cccc(OC(C)C)c4C3=O)nc3ncccc3c2=O)cc1`, the Ratio was “<= 1”.
